The text below walks through data of EP1247803A2, “Indolinone compounds suitable for modulation of protein kinases” (Sugen, Inc., priority 1996, dated 1998).

For one assay, the target named is T1, EGFR (Homo sapiens, UniProt P00533).
T1 construct: Add 7 ug A431 cell lysate per well (EGFR source); endogenous in cells; host or cells: A431
The assay is described as follows: EGFR ELISA assay (in vitro kinase activity, EGFR captured from A431 cell lysate). Format: biochemical. Also noted: concentration or dose not given beside the values. An excerpt: To provide a consistent method for measuring the in vitro kinase activity of the EGFR in an Enzyme-linked immunosorbent assay (Elisa).
Scope. The following protocol describes the procedures used to analyze protein tyrosine kinase activity on the EGFR in an Elisa. The procedure also describes the protocol for the initial screening of drugs for inhibition or activation of protein tyrosine kinase activity.
Reagents and Supplies. • 1. […] 05-101 monoclonal anti-EGFR antibody (commercially available from UB1) -80° C, 1 ml aliquots • 3. […] TBST Buffer Formulation: 50 mM Tris pH 7.2 150 mM NaCl 0.1% Triton X-100 • 5. Blocking Buffer Formulation: 5% Carnation Instant Milk in PBS • 6. A431 cell lysate A431 cells are available from a variety of commercial sources and may be used lysed using conventional methods known to those skilled in the art or as described for lysis of the 3T3 cells in the EGF cellular assay described herein. -80° C, 1 ml aliquots • 7. TBS Buffer Formulation: 50 mM Tris pH 7.2 150 mM NaCl • 8. […] NUNC 96-well V bottom polypropylene plates Applied Scientific Catalog # AS-72092 • 11. EDTA Formulation: 200 mM EDTA pH 8.0 • 12. […] Goat anti-rabbit IgG peroxidase conjugate Biosource Catalog # ALI0404 • 14. ABTS Solution Formulation: 100 mM Citric Acid (anhydrous) 250 mM Na2HPO4 pH 4.0 0.5 mg/ml ABTS (2,2'-azino-bis(3-ethylbenzthiazoline-6-sulfonic acid) (Sigma Catalog # A-1888) Keep solution in dark at 4 C until ready to use • 15. Hydrogen peroxide 30% solution Fisher Catalog # H325 Store in the dark at 4 C until ready to use • 16. ABTS/H2O2 Formulation: 15 mls ABTS solution 2 ul H2O2 Prepare 5 minutes before use and room temperature • 17. 0.2 M HCL stock in H2O Procedure. • 1. Coat Corning 96-well elisa plates with 0.5 ug per well 05-101 antibody. Bring final volume to 100 ul per well with PBS. Coat plates overnight at 4° C. • 2. Remove unbound 05-101 from wells by inverting plate to remove liquid. Wash 1x with distilled H2O by filling wells Pat the plate on a paper towel to remove excess liquid. • 3. Block plates with 5% milk in PBS. 150 ul per well. Incubate plate 30 minutes while shaking on a microtiter plate shaker. • 4. Wash plate 3x with dionized water, then once with TBST • 5. Add 7 ug A431 cell lysate per well (EGFR source). Add PBS to final volume of 100 ul per well Incubate 30 minutes while shaking. • 6. Wash as described in step 4. • 7. At this point, drugs or extracts are added to the wells. Dilute drugs/extracts 1:100 (unless specified otherwise) in TBS + 10% DMSO in 96-well polypropylene plates. Add 120 ul TBS to ELISA plate containing captured EGFR. Add 13.5 ul diluted drugs/extracts to ELISA plate. […] Incubate plate 30 minutes while shaking. • 8. […] (150 ul final volume in well with 3 uM ATP/5 mM MnCl2 final concentration in well.) Incubate 5 minutes while shaking vigorously. *NOTE: It is critical that ATP/MnCl2 phosphorylates the receptor for 5 minutes only. It is best to add the ATP/MnCl2 with an 12 channel pipettor 1 row at a time leaving 20 seconds between each row so that the reaction may be stopped with EDTA exactly 5 minutes later (this depends on the number of plates being phosphorylated in one batch). Shake between each addition. • 9. After 5 minutes, to stop reaction, add 16.5 ul of 200 mM EDTA pH 8.0 for 20 mM final in well, shaking continuously between each addition. This is done using the same timing method as above. After last row has received EDTA, shake plate an additional minute. • 10. Wash 4x with deionized water, twice with TBST. • 11. Add rabbit polyclonal anti-phosphotyrosine serum. Dilute 1:3000 in TBST. Add 100 ul per well. Incubate 30-45 minutes while shaking. • 12. Wash as described above in step 4. • 13. Add BioSource anti-rabbit peroxidase conjugate antibody. Dilute 1:2000 in TBST. Add 100 ul per well. Incubate 30 minutes while shaking. • 14. Wash as described in step 4. • 15. Add 100 ul of ABTS/H2O2 solution to well. Incubate 5 to 10 minutes while shaking. Remove bubbles • 16. […]

For a further assay, the system named is MET. Briefly: MET biochemical kinase assay. Also noted: species or system human; concentration or dose not given beside the values. An excerpt:
A met biochemical kinase assay may be performed for met generally as described above for other kinases by substituting that or the other kinases. In particular, ELISA plates are coated with goat anti-rabbit Fc antibodies, which are used to capture commercially available (from Santa Cruz Biotechnology) rabbit polyclonal antibodies to the cytoplasmic domain of human MET. […] The chimeric receptors, or MET, from these lysates are captured on the antibody coated plates. After washing away extraneous proteins, test compounds are added and an in vitro kinase assay is performed by addition of an appropriate kinase buffer (containing ATP, divalent metal ions, etc.). Incorporation of phosphate into the captured receptors is detected with an anti-phosphotyrosine antibody conjugate with horse radish peroxidase using TMB as a substrate for colorimetric detection.

T1 sequence (P00533 25-1210): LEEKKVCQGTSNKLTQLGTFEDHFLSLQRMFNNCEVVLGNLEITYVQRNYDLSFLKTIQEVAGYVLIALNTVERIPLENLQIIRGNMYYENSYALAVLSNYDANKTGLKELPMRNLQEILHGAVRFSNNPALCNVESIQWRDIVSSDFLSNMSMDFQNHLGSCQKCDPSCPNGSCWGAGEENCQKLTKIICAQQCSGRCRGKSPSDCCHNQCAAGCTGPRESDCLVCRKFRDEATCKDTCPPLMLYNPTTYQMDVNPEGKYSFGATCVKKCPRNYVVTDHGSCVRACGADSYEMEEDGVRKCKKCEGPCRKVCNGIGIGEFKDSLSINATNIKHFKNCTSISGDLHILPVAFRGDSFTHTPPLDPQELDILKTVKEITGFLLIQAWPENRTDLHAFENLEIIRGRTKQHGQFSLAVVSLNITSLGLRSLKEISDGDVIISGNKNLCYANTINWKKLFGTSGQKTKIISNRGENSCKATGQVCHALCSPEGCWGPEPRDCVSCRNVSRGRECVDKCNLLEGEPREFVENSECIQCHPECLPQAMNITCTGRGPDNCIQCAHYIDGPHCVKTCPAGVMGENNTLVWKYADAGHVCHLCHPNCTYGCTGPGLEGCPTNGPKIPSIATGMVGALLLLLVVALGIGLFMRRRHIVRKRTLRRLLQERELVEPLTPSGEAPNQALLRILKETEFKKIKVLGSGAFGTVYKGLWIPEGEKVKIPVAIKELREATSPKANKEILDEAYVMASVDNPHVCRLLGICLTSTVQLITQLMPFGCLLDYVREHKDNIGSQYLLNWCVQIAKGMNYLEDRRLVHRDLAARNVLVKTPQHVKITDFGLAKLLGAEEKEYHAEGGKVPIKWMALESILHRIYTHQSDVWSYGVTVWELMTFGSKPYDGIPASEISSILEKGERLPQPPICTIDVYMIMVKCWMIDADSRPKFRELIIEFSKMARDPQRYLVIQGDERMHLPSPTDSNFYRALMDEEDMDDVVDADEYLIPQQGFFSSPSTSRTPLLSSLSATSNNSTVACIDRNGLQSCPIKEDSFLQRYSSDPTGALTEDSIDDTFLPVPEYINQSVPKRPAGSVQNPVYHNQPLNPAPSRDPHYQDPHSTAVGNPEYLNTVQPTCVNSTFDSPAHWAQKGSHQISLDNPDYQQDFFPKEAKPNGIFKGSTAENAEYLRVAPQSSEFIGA

For the molecule `CN1C(=O)C(=C2C(=O)Nc3ccc(S(=O)(=O)Nc4ccc(C(F)(F)F)cc4)cc32)c2ccccc21` [10731/E10], the “Biochem EGFR %Inhibition” value on EGFR was 25.1%. Further, in the assay on MET, the “Met Kinase % Inhibition” value is 35.5%.
In the same order, the values of `O=C1Nc2ccc(S(=O)(=O)Nc3ccc(C(F)(F)F)cc3)cc2C1=Cc1coc2ccc([N+](=O)[O-])cc2c1=O` [10731/E07] are 38.4% and 45.9%.
Regarding `CNS(=O)(=O)c1ccc2c(c1)C(=Cc1cc(Cl)c(OC)c(C(C)(C)C)c1)C(=O)N2` [10732/D09], the “Biochem EGFR %Inhibition” value at EGFR is recorded as -9.9%. Besides, in the assay with MET, the “Met Kinase % Inhibition” value came out at 40.3%.
In the same order, the values of `Cc1cc2occ(C=C3C(=O)Nc4ccc(CCCl)cc43)c(=O)c2cc1C` [10731/G03] are 7.7% and 33.7%.
As to `CCOC(=O)CCc1c(C(=O)OCC)[nH]c(C=C2C(=O)Nc3ccc(S(=O)(=O)NC)cc32)c1CC(=O)OCC` [10718/D05], on EGFR, the “Biochem EGFR %Inhibition” value was 2.8%. Further, the “Met Kinase % Inhibition” value with MET is recorded as 10.6%.
With `CNS(=O)(=O)c1ccc2c(c1)C(=Cc1c[nH]c3ccc(OC)cc13)C(=O)N2` [10731/D09], the “Biochem EGFR %Inhibition” value at EGFR was 12.6%. Further, in the assay with MET, the “Met Kinase % Inhibition” value is 23.9%.
The corresponding values for `CN1C(=O)C(=C2C(=O)Nc3ccc(S(=O)(=O)N4CCOCC4)cc32)c2ccccc21` [10731/F10] are 7.9% and 48.1%.
In the case of `COc1ccc2[nH]cc(C=C3C(=O)Nc4ccc(S(=O)(=O)Nc5ccc(C(F)(F)F)cc5)cc43)c2c1` [10731/E09], the “Biochem EGFR %Inhibition” value on EGFR stood at 17.2%. Also, in the assay on MET, the “Met Kinase % Inhibition” value is on record as 27.0%.
In the same order, the values of `CNS(=O)(=O)c1ccc2c(c1)C(=Cc1cc(OC)cc(Br)c1O)C(=O)N2` [10718/D03] are 61.9% and 92.9%.
In the same order, the values of `Cc1c(Br)ccc2c1C(=Cc1ccc([N+](=O)[O-])o1)C(=O)N2` [10718/C11] are -0.2% and 10.1%.
Take `CCOC(=O)c1c(C)[nH]c(C=C2C(=O)Nc3ccc(S(=O)(=O)NC)cc32)c1C` [10718/D02]: the “Biochem EGFR %Inhibition” value at EGFR turned out to be 14.4%. Moreover, in the assay on MET, the “Met Kinase % Inhibition” value is recorded as 32.0%.
The corresponding values for `CNS(=O)(=O)c1ccc2c(c1)C(=Cc1ccc3ccccc3c1O)C(=O)N2` [10718/D04] are 52.0% and 92.9%.
In the same order, the values of `CC(C)c1ccc2occ(C=C3C(=O)Nc4ccc(CCCl)cc43)c(=O)c2c1` [10731/G05] are 18.5% and 72.4%.
In the case of `CNS(=O)(=O)c1ccc2c(c1)C(=Cc1cc(C(C)C)c(Oc3ccccc3)c(C(C)C)c1)C(=O)N2` [10732/D04], the “Biochem EGFR %Inhibition” value at EGFR was -11.4%. Moreover, the “Met Kinase % Inhibition” value in the assay with MET was determined as 40.7%.
The corresponding values for `CC(C)(C)c1cc(C=C2C(=O)Nc3ccc(I)cc32)ccc1OCc1ccccc1` [10732/B06] are 12.8% and 74.3%.
In the same order, the values of `O=C1Nc2ccc(S(=O)(=O)N3CCOCC3)cc2C1=Cc1coc2ccc([N+](=O)[O-])cc2c1=O` [10731/F07] are 37.7% and 34.7%.
As for `Cc1c(Br)ccc2c1C(=Cc1cc(C(C)C)c(Oc3ccccc3)c(C(C)C)c1)C(=O)N2` [10732/C04], the “Biochem EGFR %Inhibition” value at EGFR is listed as -14.7%. Further, the “Met Kinase % Inhibition” value in the assay with MET was 30.6%.
With `COc1ccc2[nH]cc(C=C3C(=O)Nc4ccc(S(=O)(=O)N5CCOCC5)cc43)c2c1` [10731/F09], the “Biochem EGFR %Inhibition” value at EGFR was -0.7%. For the same molecule, the “Met Kinase % Inhibition” value in the assay on MET is given as 20.5%.
Consider `CNS(=O)(=O)c1ccc2c(c1)C(=C1C(=O)N(C)c3ccccc31)C(=O)N2` [10731/D10], for which the “Biochem EGFR %Inhibition” value on EGFR was 15.8%. For the same molecule, in the assay with MET, the “Met Kinase % Inhibition” value is given as 21.1%.
Take `COc1c(Cl)cc(C=C2C(=O)Nc3c(Br)cc(Br)cc32)cc1C(C)(C)C` [10732/A09]: the “Biochem EGFR %Inhibition” value on EGFR came out at 39.7%. Also, the “Met Kinase % Inhibition” value with MET came out at 60.3%.
The corresponding values for `C=C(C)C1CC=C(C=C2C(=O)Nc3ccc(S(=O)(=O)Nc4ccc(C(F)(F)F)cc4)cc32)CC1` (stereo not shown) [10731/E04] are 13.6% and 55.6%.
The corresponding values for `CC(C)c1cc(C=C2C(=O)Nc3ccc(I)cc32)cc(C(C)C)c1Oc1ccccc1` [10732/B04] are -22.1% and 79.5%.
In the same order, the values of `COc1c(C(C)C)cc(C=C2C(=O)Nc3ccc(I)cc32)cc1C(C)C` [10732/B03] are -15.3% and 58.1%.
Turning to `CC(C)c1ccc2occ(C=C3C(=O)Nc4ccc(S(=O)(=O)N5CCOCC5)cc43)c(=O)c2c1` [10731/F05], the “Biochem EGFR %Inhibition” value at EGFR stood at 19.5%. For the same molecule, in the assay with MET, the “Met Kinase % Inhibition” value amounted to 84.4%.
In the same order, the values of `CNS(=O)(=O)c1ccc2c(c1)C(=Cc1ccc(OCc3ccccc3)c(C(C)(C)C)c1)C(=O)N2` [10732/D06] are 3.6% and 24.3%.
The corresponding values for `O=C1Nc2c(Br)cc(Br)cc2C1=CC(c1cccs1)C(F)(F)F` (stereo not shown) [10732/A02] are 5.1% and 53.7%.
The corresponding values for `CN1C(=O)C(=C2C(=O)Nc3ccc(CCCl)cc32)c2ccccc21` [10731/G10] are 5.5% and 10.3%.
As for `CC(C)(C)c1cc(C=C2C(=O)Nc3c(Br)cc(Br)cc32)cc(Br)c1OCc1ccccc1` [10732/A08], the “Biochem EGFR %Inhibition” value at EGFR was 12.1%. Moreover, in the assay on MET, the “Met Kinase % Inhibition” value is listed as 32.7%.
The corresponding values for `CCn1c2ccccc2c2cc(C=C3C(=O)Nc4ccc(S(=O)(=O)N5CCOCC5)cc43)ccc21` [10731/F02] are 17.7% and 47.5%.
For `CCn1c2ccccc2c2cc(C=C3C(=O)Nc4ccc(CCCl)cc43)ccc21` [10731/G02], at EGFR, the “Biochem EGFR %Inhibition” value was found to be 4.7%. The “Met Kinase % Inhibition” value in the assay with MET is given as 15.2%.
The corresponding values for `CC(C)(C)c1cc(C=C2C(=O)Nc3ccc(I)cc32)cc(Br)c1OCc1ccccc1` [10732/B08] are 7.8% and 64.4%.
In the same order, the values of `CC(C)c1cc(C=C2C(=O)Nc3c(Br)cc(Br)cc32)cc(C(C)C)c1Oc1ccccc1` [10732/A04] are -10.6% and 34.8%.
